In PMC11081523, “An ensemble machine learning model generates a focused screening library for the identification of CDK8 inhibitors” (Protein Science : A Publication of the Protein Society, 2024):
pIC50: −log10 of the molar value.

Molecular target: CDK8 (Homo sapiens, UniProt P49336)
Experiment: LanthaScreen kinase activity assay (Thermo Fisher SelectScreen kinase profiling service)
Assay type: biochemical
Settings: for pIC50: CDK8, dose-response at 10,000, 3000, 1000, 300 and 100 nM; for inhibition at 10 µM: CDK8 inhibition, compounds tested at 10 μM, read-out: Inhibitory activity (10 μM)
Protocol: Selected compounds were tested using the Thermo Fisher Scientific SelectScreen kinase profiling service (www.thermofisher.com/selectscreen). The LanthaScreen kinase activity assay was used. In short, a reaction between fluorescein‐labeled substrate and ATP is performed in a container. The reaction is ceased with the addition of EDTA. A terbium‐labeled antibody is added to detect phosphorylated fluorescein‐labeled substrate. A ratio between the acceptor and donor signal is an indicator of the amount of phosphorylated substrate present in the reaction, thereby indicating kinase activity.

CDK8, sequence (P49336 whole entry): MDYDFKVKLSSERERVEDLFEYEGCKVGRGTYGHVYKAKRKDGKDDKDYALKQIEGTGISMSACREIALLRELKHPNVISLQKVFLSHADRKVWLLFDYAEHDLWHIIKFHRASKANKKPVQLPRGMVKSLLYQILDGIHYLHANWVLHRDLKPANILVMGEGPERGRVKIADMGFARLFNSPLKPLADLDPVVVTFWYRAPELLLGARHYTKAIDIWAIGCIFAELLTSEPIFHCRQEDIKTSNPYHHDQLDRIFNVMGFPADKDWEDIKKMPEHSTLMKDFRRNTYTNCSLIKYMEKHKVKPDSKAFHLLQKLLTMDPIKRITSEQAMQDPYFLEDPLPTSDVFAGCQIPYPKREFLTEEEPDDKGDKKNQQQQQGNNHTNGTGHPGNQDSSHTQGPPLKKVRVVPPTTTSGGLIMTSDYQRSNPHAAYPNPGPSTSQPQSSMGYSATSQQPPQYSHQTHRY
CDK8, sequence (P24863 whole entry partner): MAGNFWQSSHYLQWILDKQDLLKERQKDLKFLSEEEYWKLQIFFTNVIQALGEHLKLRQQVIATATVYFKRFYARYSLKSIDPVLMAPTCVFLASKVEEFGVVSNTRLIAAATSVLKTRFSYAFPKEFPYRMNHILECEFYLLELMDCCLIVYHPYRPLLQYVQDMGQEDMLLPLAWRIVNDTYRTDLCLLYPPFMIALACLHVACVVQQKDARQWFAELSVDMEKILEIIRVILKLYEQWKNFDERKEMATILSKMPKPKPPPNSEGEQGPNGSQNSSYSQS

SMILES	pIC50	inhibition at 10 µM [%]
COc1ccc2ncc(C#N)c(N3CCC(C(=O)Nc4ccc(F)c(C)c4)CC3)c2c1 [L483‐0192]	5.74	71
CCc1cc2c(N3CCCC(C(=O)N4CCN(c5ccc(F)cc5)CC4)C3)ncnc2s1 (stereo not drawn) [G887‐0711]	5.94	> 90
CC1CCN(C(=O)c2ccc3ncnc(N4CCCCC4)c3c2)CC1 [M628‐0340]	5.72	77

Results, then the molecule that gave them:

pIC50	inhibition at 10 µM [%]	SMILES
7.00	> 90	Cc1ccc(NC(=O)Nc2cnn(-c3ncncc3N3CCOCC3)c2)cc1C [T479‐0984]
5.65	73	CCCn1cc(-c2ccncc2)cc1C(=O)N1CCC(C)CC1 [P076‐1448]
5.35	71	CCn1cc(-c2ccncc2)cc1C(=O)N1CCN(c2ccc(Cl)cc2)CC1 [P076‐1220]
